Measurements taken from patent US20110224221A1, “HEMATOPOIETIC PROTECTION AGAINST IONIZING RADIATION USING SELECTIVE CYCLIN-DEPENDENT KINASE 4/6 INHIBITORS” (priority 2008, published 2011).
“Also recorded” adds a separate entry of the source.

Legend:
[1] = system: hematopoietic stem and progenitor cells; assay: HSPC proliferation in vivo (BrdU incorporation, Ki67) by flow cytometry; parameters: species or system mice
Description: BrdU Incorporation in vivo: Mice were treated once daily for 2 days with PD 0332991 at 150 mg/kg. 5-Bromo-2-deoxyuridine (BrdU) was given 24 hours after the initiation of PD 0332991 and continued until the animals were sacrificed for analysis: 24 hours of BrdU by intraperitoneal (i.p.) injection every 6 hours at a dose of 1 mg.
For HSPC proliferation experiments, mice received daily oral gavage with PD0332991 for 2 days with 1 mg BrdU intraperitoneal injection every 6 hours for 24 hours prior to sacrifice. BM-MNC harvest and immunophenotyping was performed using RBC lysis, biotin-conjugated Lin-panel incubation (Invitrogen Corporation, Carlsbad, Calif., United States of America), paramagnetic bead-conjugated straptavidin (Miltinyi Biotec, Bergisch Gladbach, Germany) incubation, and magnetic depletion using an AutoMACS (Miltinyi Biotec, Bergisch Gladbach, Germany). At least 2×10^6 Lin-depleted cells per mouse were incubated with fluorescently labeled antibodies against cell surface antigens used to identify hematopoietic progenitor subpopulations as previously described (see Passegue et al., J. Exp. Med., 202, 1599-1611 (2005); and Kiel et al., Cell, 121, 1109-1121 (2005): CD34-FITC, CD16/32-PacificBlue, IL7Ra-PE-Cy5, and cKit-APC-Alexa750 from eBiosciences, Inc. (San Diego, Calif., United States of America); Sca1-PE-Cy7, CD150-PE-Cy5, and CD48-PacificBlue from BioLegend (San Diego, Calif., United States of America); and Aqua Live/Dead viability dye (Invitrogen Corporation, Carlsbad, Calif., United States of America). Streptavidin-PE-TexasRed (Invitrogen Corporation, Carlsbad, Calif., United States of America) was used to confirm efficiency of lineage-depletion. After cell surface staining, cells were fixed, permeabilized, and stained with antibodies against Ki67-FITC, BrdU-APC, and caspase3-PE (BD Biosciences Pharmingen, San Diego, Calif., United States of America).
In all experiments, gating based on isotype controls was used as appropriate. Flow cytometry was performed using a CyAn ADP (Dako, Glostrup, Denmark) and analyzed with FlowJo software (Tree Star, Ashland, Oreg., United States of Ameria). For each bone marrow sample, a minimum of 200,000 cells were analyzed. For cell culture samples, a minimum of 20,000 cells were analyzed.
PD0332991, which is orally bioavailable, was administered to adult wild-type C57Bl/6 mice by oral gavage. […] See Passeque et al., J. Exp. Med., 202, 1599-1611 (2005); Wilson et al., Cell, 125, 1118-1129 (2008); and Kiel et al., Nature, 449, 238-U210 (2007).
2BrIC was solubilized for oral gavage using formulation #6 from the Hot Rod formulation kit (Pharmatek, Inc. San Diego, Calif., United States of America) and given by oral gavage 2 hours prior to BrdU injection. Also, an additional dose was given at the time of BrdU injection to sustain the G1 arrest in bone marrow.

[2] = system: telomerized human diploid fibroblasts (tHDF); assay: Cell cycle analysis (BrdU incorporation in vitro), tHDF; format: cell-based; settings: 24 hours exposure
Source text: FIG. 3A is a set of graphs showing the dose-response curves for cycle analysis in both cyclin-dependent kinase 4/6 (CKD4/6)-dependent cells (human telomerized human diploid fibroblasts (tHDFs, left-hand column of graphs) and a CDK4/6-dependent human melanoma cell line (WM2664, middle column of graphs)) and in CDK4/6-independent cells (a human retinoblastoma tumor suppressor protein (RB)-null melanoma cell line (A2058), right-hand column of graphs). […] The percentage of cells in the G1 phase is indicated by the data shown in the open triangles, while the percentage of cells in the S phase is shown by the data in the shaded circles and the percentage of cells in the G2/M phase is indicated by the data in the double “x”s.
Cell Lines: KPTR1, KPTR4. and KPTR5 were derived from tumor-bearing TyrRAS+Ink4a/Arf−/− by standard procedures and cultured in RPMI+10% fetal bovine serum (FBS). Telomerized HDFs (tHDFs, also known as HS68) were cultured in DMEM+10% FBS with penicillin and streptomycin. The same conditions were used for A2058 and WM2664, human melanoma cell lines with known RB-pathway mutations: A2058 is RB-null, whereas WM2664 lacks p16^INK4a/Arf. See Shields, et al., Cancer Res., 67, 1502-1512 (2007). Cells were irradiated for indicated doses in a Rad Source Inc. (Alpharetta, Ga., United States of America) RS-2000 Biological Irradiator at 160 kV, 25.0 mA, at distance setting 1, with a dose rate of 103 rads/min.
BrdU Incorporation in vitro: Cells were plated and allowed to adhere overnight or at least 6 hours prior to adding CDK4/6 inhibitor at the indicated concentrations. Cells were grown for 24 hours in the presence of CDK4/6 inhibitor. 15 minutes prior to cell harvesting, 5-Bromo-2-deoxyuridine (BrdU) was added to the media at a final concentration of 10 μM. The cells were then washed, trypsinized, pelleted, fixed, permeabilized, stained, and measured on a flow cytometer as described in manufacturer directions for the BrdU Kit (BD Biosciences Pharmingen, San Diego, Calif., United States of America).
The proliferation of seven RB-deficient human small cell lung cancer lines was also resistant to the selective CDK4/6 inhibitors.

[3] = system: tHDF cells; assay: Western blot of DNA damage response marker phospho-P53 after IR; format: cell-based, human; settings: treatment prior to IR; PD0332991 100 nM for 24 hours, 6 Gy
Description: FIG. 4A are images of Western blots of a DNA damage response marker (phospho-P53) in telomerized human diploid fibroblast (tHDF) cell lysates 3 hours after or 6 hours after a 6 gray (Gy) dose of ionizing radiation (IR) or following no IR, as indicated above the blot images. […] Actin western blot is shown as a loading control.
FIG. 4B is a bar graph showing the normalized phospho-P53 intensity in the telomerized human diploid fibroblast (tHDF) cells described in FIG. 4A.
Western Blots: Western blots were performed on cell lysates in NP-40 lysis buffer with protease inhibitors (Roche, Basel, Switzerland) and phosphatase inhibitors (Calbiochem, San Diego, Calif., United States of America) as previously described (see Ramsey et al., Cancer Res., 67, 4732-4741), using anti-p53-phospho-Ser15 (Cell Signaling Technology, Beverly, Mass., United States of America), Bax, p21, and actin-HRP (Santa Cruz Biotechnology, Inc., Santa Cruz, Calif., United States of America).

[4] = among oligopotent progenitors, 48 hours treatment

## O=C1NC(=O)c2c1c1c3ccccc3[nH]c1c1[nH]c3cc(Br)ccc3c21 [Compound 2BrIC, 2-bromo-12,13-dihydro-5H-indolo[2,3-a]pyrrolo[3,4]-carbazole-5,6-dione]
[1]; Lin−Kit+Sca1+ cells, oral gavage 2 hours prior to and at BrdU injection, relative to formulation alone
  incorporation of BrdU into MPP: inhibited the incorporation of BrdU; also recorded: clearly reducing proliferation of the MPP
[2]
  cell cycle effect: strong, reversible G1-arrest
[3]
  DNA damage response (phospho-P53) after IR: attenuated

## CC(=O)c1c(C)c2cnc(Nc3ccc(N4CCNCC4)cn3)nc2n(C2CCCC2)c1=O [PD0332991, 6-acetyl-8-cyclopentyl-5-methyl-2-(5-piperazin-1-yl-pyridin-2-ylamino)-8H-pyrido-[2,3-d]-pyrimidin-7-one]
[1]; 48 hours treatment
  proliferation in early HSPC (BrdU incorporation, Ki67): clearly reduces proliferation
  proliferation of Lin−Kit−Sca1− and Lin+ cells: no change in proliferation
[1]; HSC (Lin−Kit+Sca1+CD48−CD150+), 48 hours treatment, oral gavage, C57Bl/6
  frequency of HSC doubly positive for expression of Ki67 and BrdU: significantly decreased
[1]; Lin−Kit+Sca1−, 48 hours treatment
  proliferation of oligopotent progenitors: modest inhibition of proliferation
[1]; MPP (Lin−Kit+Sca1+CD48−CD150−), 48 hours treatment
  proliferation of multipotent progenitor cell compartment: more pronounced inhibition of proliferation
[1]; [4]
  proliferation of CMP and CLP: strongest effects
  proliferation of GMP and MEP: weaker effects
[2]
  cell cycle effect: strong, reversible G1-arrest
[3]
  DNA damage response (phospho-P53) after IR: attenuated
